# Source: publication PMC9798004 (Frontiers in Psychiatry, 2022)
# Entries after “also recorded” stand apart in the source; their conditions may differ. Where two headings read alike, the source gives them in different places.
# Legend:
# [1] = biological target: T1, ADORA3 (Homo sapiens, UniProt P0DMS8); assay: PathHunter β-arrestin assay; type: cell-based; conditions: antagonist mode vs EC80 of control agonist, 10-point curve
# T1 construct: host or cells: CHO
# [2] = biological target: ADRA2B (Homo sapiens, UniProt P18089); type: cell-based
# ADRA2B, sequence (P18089 whole entry): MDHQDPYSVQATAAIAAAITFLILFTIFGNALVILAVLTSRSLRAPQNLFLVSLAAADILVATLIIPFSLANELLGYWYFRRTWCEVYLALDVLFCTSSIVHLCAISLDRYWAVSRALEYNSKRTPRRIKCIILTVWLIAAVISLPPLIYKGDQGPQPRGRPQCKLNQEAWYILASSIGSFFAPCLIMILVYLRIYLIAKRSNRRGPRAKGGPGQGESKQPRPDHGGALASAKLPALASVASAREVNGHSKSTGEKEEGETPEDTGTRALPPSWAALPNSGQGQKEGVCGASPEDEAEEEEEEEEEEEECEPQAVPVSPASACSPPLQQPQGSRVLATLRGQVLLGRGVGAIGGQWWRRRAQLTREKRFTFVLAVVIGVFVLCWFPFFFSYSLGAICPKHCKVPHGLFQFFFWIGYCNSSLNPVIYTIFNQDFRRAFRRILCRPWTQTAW
# [3] = biological target: CALCR-RAMP2 (Homo sapiens, UniProt O60895+P30988); assay: PathHunter β-arrestin assay; type: cell-based; conditions: antagonist mode vs EC80 of control agonist, 10-point curve
# [4] = biological target: DRD2L (Homo sapiens, UniProt P14416); assay: PathHunter β-arrestin assay; type: cell-based; conditions: antagonist mode, up to 30 μM
# DRD2L, sequence (P14416 whole entry): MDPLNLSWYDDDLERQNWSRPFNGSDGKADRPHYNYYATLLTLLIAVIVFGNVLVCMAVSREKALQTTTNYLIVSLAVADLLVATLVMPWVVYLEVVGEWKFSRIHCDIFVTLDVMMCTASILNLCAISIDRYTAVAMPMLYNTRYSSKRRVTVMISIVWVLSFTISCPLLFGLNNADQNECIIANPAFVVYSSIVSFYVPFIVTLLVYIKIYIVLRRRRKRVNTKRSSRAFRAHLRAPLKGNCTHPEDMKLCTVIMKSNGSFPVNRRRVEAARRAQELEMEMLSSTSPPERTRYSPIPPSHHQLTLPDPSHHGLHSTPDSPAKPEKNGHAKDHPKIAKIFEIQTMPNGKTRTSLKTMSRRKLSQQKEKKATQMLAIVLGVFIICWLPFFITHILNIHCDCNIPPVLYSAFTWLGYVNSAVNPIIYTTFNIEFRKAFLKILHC
# [5] = biological target: DRD5 (Homo sapiens, UniProt P21918); assay: PathHunter β-arrestin assay; type: cell-based; conditions: antagonist mode vs EC80 of control agonist, 10-point curve
# DRD5, sequence (P21918 whole entry): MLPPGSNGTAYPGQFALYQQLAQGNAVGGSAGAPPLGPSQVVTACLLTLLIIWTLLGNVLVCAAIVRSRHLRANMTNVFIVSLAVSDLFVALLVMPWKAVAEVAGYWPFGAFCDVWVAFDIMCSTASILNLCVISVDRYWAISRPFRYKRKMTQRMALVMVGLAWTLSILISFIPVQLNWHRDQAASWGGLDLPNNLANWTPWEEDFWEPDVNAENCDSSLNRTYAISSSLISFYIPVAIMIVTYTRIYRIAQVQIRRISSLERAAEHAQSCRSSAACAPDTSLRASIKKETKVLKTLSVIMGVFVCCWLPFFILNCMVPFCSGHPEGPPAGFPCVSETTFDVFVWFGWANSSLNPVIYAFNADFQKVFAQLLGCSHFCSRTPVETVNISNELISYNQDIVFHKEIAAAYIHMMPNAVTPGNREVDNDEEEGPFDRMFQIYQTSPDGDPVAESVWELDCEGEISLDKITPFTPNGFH
# [6] = biological target: T2, FPR1 (Homo sapiens, UniProt P21462); assay: PathHunter β-arrestin assay; type: cell-based; conditions: antagonist mode vs EC80 of control agonist, 10-point curve
# T2 sequence (P21462 1-350): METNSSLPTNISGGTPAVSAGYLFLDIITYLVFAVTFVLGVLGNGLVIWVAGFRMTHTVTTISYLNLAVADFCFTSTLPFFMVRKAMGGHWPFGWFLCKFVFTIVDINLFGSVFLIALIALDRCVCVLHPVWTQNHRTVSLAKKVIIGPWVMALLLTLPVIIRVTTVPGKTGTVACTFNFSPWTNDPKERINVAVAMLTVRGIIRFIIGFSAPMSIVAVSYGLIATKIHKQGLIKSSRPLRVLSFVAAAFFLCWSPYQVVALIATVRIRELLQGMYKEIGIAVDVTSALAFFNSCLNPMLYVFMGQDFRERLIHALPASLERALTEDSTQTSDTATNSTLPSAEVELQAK
# [7] = biological target: T3, GALR1 (Homo sapiens, UniProt P47211); assay: PathHunter β-arrestin assay; type: cell-based; conditions: antagonist mode, up to 30 μM
# T3 construct: purchased Eurofins DiscoverX (PathHunter gpcrMAX)
# T3 sequence (P47211 whole entry): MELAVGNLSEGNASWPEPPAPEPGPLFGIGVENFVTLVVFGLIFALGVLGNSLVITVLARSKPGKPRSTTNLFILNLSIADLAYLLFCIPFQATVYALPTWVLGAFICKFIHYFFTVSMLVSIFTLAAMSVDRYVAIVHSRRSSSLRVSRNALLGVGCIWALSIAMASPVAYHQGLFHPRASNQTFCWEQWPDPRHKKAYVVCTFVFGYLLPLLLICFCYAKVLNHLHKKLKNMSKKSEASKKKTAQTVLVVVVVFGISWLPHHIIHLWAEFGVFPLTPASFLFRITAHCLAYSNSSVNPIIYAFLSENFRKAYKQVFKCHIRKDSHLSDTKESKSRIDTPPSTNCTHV
# [8] = biological target: T4, GALR2 (Homo sapiens, UniProt O43603); assay: PathHunter β-arrestin assay; type: cell-based; conditions: antagonist mode, up to 30 μM
# T4 construct: purchased Eurofins DiscoverX (PathHunter gpcrMAX)
# T4 sequence (O43603 whole entry): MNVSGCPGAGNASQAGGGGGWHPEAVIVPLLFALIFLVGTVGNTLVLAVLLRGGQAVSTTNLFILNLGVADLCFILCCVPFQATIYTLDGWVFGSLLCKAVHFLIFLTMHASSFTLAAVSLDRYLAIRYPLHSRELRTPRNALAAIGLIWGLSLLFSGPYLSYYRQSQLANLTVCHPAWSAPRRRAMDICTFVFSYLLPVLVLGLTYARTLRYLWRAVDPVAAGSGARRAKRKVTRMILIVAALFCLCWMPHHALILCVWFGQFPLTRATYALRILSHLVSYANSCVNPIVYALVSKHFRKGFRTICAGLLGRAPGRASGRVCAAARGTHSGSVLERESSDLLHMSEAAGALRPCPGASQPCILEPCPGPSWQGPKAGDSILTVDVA
# [9] = biological target: T5, GIPR (Homo sapiens, UniProt P48546); assay: PathHunter β-arrestin assay; type: cell-based; conditions: antagonist mode, up to 30 μM
# T5 construct: purchased Eurofins DiscoverX (PathHunter gpcrMAX)
# T5 sequence (P48546 22-466): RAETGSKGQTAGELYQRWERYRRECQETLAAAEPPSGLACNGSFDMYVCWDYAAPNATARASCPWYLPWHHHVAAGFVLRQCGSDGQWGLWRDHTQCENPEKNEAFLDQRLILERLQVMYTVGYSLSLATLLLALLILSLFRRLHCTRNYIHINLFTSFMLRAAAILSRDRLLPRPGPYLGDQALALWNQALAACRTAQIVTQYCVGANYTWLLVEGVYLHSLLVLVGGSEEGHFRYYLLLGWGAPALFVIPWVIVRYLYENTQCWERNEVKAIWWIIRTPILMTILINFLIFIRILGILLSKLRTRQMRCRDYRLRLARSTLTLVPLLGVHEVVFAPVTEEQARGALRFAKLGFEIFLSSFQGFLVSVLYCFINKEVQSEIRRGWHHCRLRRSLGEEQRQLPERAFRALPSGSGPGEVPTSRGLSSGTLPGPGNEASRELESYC
# [10] = biological target: T6, GPR119 (Homo sapiens, UniProt Q8TDV5); assay: PathHunter β-arrestin assay; type: cell-based; conditions: antagonist mode, 30 μM
# T6 construct: purchased Eurofins DiscoverX (PathHunter gpcrMAX)
# T6 sequence (Q8TDV5 1-335): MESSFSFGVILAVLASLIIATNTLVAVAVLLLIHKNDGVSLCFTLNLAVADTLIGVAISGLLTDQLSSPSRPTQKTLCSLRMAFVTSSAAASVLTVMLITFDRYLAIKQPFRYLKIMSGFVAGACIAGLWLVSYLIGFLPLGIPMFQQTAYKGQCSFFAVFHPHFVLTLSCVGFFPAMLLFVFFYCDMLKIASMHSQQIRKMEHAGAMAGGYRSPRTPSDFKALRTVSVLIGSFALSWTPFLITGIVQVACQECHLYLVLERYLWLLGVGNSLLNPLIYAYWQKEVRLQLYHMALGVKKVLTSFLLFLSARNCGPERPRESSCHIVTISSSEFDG
# [11] = biological target: GPR35 (Homo sapiens, UniProt Q9HC97); assay: PathHunter β-arrestin assay; type: cell-based; conditions: antagonist mode, up to 30 μM
# [12] = biological target: HCRTR2 (Homo sapiens, UniProt O43614); assay: PathHunter β-arrestin assay; type: cell-based; conditions: antagonist mode vs EC80 of control agonist, 10-point curve
# HCRTR2, sequence (O43614 whole entry): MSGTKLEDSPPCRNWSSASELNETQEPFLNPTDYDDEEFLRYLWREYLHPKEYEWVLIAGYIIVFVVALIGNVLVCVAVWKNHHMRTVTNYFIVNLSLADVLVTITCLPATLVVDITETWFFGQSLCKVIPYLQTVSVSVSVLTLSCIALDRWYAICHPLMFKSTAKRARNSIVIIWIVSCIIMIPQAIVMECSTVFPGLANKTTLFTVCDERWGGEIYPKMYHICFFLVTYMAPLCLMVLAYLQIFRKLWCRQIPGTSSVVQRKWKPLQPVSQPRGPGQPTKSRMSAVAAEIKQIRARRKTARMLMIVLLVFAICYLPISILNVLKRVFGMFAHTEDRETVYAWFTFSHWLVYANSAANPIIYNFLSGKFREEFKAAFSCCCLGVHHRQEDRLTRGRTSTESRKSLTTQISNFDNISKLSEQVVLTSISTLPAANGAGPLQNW
# [13] = biological target: HRH2 (Homo sapiens, UniProt P25021); assay: PathHunter β-arrestin assay; type: cell-based; conditions: antagonist mode vs EC80 of control agonist, 10-point curve
# [14] = biological target: MC3R (Homo sapiens, UniProt P41968); assay: PathHunter β-arrestin assay; type: cell-based; conditions: antagonist mode vs EC80 of control agonist, 10-point curve
# MC3R, sequence (P41968 whole entry): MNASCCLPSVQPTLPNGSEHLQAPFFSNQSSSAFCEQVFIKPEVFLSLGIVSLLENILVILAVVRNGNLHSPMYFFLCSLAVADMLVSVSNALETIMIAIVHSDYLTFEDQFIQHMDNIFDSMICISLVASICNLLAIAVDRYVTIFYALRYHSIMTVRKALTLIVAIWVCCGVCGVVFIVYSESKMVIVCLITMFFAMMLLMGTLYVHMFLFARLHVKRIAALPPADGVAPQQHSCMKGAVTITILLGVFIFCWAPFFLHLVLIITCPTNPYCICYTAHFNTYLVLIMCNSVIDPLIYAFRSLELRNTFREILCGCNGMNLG
# [15] = biological target: MC5R (Homo sapiens, UniProt P33032); assay: PathHunter β-arrestin assay; type: cell-based; conditions: antagonist mode vs EC80 of control agonist, 10-point curve
# MC5R, sequence (P33032 whole entry): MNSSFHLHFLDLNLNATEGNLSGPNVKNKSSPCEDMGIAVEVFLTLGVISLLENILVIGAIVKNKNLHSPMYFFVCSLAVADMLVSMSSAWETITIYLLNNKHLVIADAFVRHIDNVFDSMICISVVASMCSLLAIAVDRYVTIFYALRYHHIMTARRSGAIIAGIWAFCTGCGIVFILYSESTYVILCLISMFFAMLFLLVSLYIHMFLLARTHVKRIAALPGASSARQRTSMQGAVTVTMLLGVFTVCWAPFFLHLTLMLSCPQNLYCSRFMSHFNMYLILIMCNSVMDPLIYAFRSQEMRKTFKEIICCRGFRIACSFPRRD
# [16] = biological target: MCHR1 (Homo sapiens, UniProt Q99705); assay: PathHunter β-arrestin assay; type: cell-based; conditions: antagonist mode, up to 30 μM
# MCHR1, sequence (Q99705 whole entry): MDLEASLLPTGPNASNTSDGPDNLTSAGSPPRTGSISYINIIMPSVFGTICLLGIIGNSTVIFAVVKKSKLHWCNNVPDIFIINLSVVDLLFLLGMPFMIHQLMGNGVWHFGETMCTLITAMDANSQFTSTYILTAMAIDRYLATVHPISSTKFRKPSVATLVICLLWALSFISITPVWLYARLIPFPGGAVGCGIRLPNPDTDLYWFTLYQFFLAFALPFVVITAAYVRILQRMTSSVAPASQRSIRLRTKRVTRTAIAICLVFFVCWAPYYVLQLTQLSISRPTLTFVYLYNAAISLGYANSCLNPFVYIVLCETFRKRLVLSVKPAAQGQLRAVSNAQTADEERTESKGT
# [17] = biological target: UTR2 (Homo sapiens, UniProt Q9UKP6); assay: PathHunter β-arrestin assay; type: cell-based; conditions: antagonist mode, up to 30 μM
# UTR2, sequence (Q9UKP6 whole entry): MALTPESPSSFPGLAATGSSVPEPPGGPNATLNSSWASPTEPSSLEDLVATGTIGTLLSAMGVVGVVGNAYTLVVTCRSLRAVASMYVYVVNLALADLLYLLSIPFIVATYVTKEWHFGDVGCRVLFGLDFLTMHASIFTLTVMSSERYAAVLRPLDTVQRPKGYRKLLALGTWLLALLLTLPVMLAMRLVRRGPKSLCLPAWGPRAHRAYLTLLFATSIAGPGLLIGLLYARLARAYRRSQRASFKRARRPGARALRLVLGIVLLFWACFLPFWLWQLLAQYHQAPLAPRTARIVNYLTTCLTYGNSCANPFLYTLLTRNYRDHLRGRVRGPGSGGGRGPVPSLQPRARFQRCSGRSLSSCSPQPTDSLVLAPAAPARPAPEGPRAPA
# [18] = system: GPCR off-targets with >5-fold difference in S/N and CoV (n = 36); assay: Follow-up concentration-response β-arrestin assays, panel of hits; type: cell-based
# Procedure: Follow up experiments were prioritized based on the difference between S/N and CoV. Targets with a >5-fold difference between S/N and CoV were investigated for their potential contribution to the AMB-FUBINACA toxidrome with 10-point concentration-response curves generated in technical replicate (range 1.5–30 μM) using the EC80 of the relevant agonist, where applicable in antagonist mode. Simultaneous agonist and antagonist curves were run in parallel to ensure reliability of the assay (see Supplementary Table 2), with both RC50 and signal to background aligning with historical averages, and Z' >0.5. RC50 was estimated using a four-parameter fit (CBIS Data Analysis Suite, ChemInnovation, San Diego, CA) on normalized data.
# [19] = system: AtT20 cells expressing human CB1 (hCB1); assay: LDH release cytotoxicity assay; type: cell-based; conditions: 30 μM
# Procedure: AtT20 cells expressing either human CB1 (hCB1) or CB2 (hCB2) receptors or wildtype (WT) were grown to confluence in T75 cm^2 flasks in Dulbecco's modified eagle medium containing 10% fetal bovine serum, 100 U penicillin/streptomycin, and 80 μg/mL hygromicyin (Sigma-Aldrich/Merck; Castle Hill, NSW, Australia). Cells were plated in 96-well-microplates at 30,000 cells per well and allowed to adhere overnight in 5% CO2. The following morning, cells were treated with either vehicle (0.1% DMSO; negative control), 30 μM Δ^9-THC, or 30 μM AMB-FUBINACA. At 1 or 6 h, the amount of lactate dehydrogenase in the cell media was tested, and compared with positive control (lysed cells) as per manufacturer's instructions (Dojindo Molecular Technologies, Inc.; Rockville, MD, USA), with readings performed on a Clariostar Plus plate reader (BMG Labtech, Mornington, VIC, Australia). Experiments were performed in triplicate. In order to measure any accumulating LDH, media was not changed after initial incubation. Data is represented as means ± S.E.M. A two-way ANOVA with was performed on the data at each time point, with Tukey's multiple comparison test (α = 0.05). A p < 0.05 was considered statistically significant.
# [20] = parameters: method as in PMID 35210552; conditions: rats; cited from earlier work
# [21] = system: CB1; parameters: method as in PMID 31513380; conditions: 10 μM; cited from earlier work
# T1 sequence (P0DMS8 whole entry): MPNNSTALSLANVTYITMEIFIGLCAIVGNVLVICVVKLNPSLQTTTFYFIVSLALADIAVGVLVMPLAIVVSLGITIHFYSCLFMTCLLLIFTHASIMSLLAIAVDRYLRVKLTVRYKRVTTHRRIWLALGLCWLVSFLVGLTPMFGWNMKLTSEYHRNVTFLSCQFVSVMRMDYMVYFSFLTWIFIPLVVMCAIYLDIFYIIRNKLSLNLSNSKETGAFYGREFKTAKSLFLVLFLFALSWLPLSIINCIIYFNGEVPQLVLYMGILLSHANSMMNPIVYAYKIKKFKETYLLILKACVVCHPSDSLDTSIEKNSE
smiles,measurement,setting,value
COC(=O)[C@@H](NC(=O)c1nn(Cc2ccc(F)cc2)c2ccccc12)C(C)C [AMB-FUBINACA],IC50,[1],14.6 µM
same,IC50,[2],2.29 µM
same,inhibitory activity at lower concentrations,"[2]; antagonist mode, 1 μM",appreciable inhibitory activity
same,IC50,[3],10.8 µM
same,inhibitory activity in concentration-response,[4],Activity was only observed at the highest concentration (30 μM); also recorded: only inhibited at the highest 30 μM concentration
same,IC50,[5],10.7 µM
same,IC50,[6],7.91 µM
same,inhibitory activity in concentration-response,[7],Activity was only observed at the highest concentration (30 μM)
same,inhibitory activity in concentration-response,[8],did not produce any clear activity
same,inhibitory activity in concentration-response,[9],Activity was only observed at the highest concentration (30 μM)
same,inhibition in single-point screen,[10],inhibited to the greatest extent of any antagonist mode target
same,inhibitory activity in concentration-response,[11],did not produce any clear activity
same,IC50,[12],12.7 µM
same,IC50,[13],13.1 µM
same,IC50,[14],6.68 µM
same,IC50,[15],14.1 µM
same,inhibitory activity in concentration-response,[16],Activity was only observed at the highest concentration (30 μM); also recorded: only inhibited at the highest 30 μM concentration
same,inhibitory activity in concentration-response,[17],did not produce any clear activity
same,IC50,"[18]; antagonist mode (Figure 4), read-out: potencies at targets other than CB1",> 1 µM
same,IC50,"[18]; antagonist mode vs EC80 agonist, concentrations up to 30 μM, read-out: IC50 at 12 receptors (Figure 5)",> 30 µM
same,"LDH in cell media, normalized to total LDH",[19]; 1 h,17.09 ± 7.03%
same,LDH increase compared with vehicle,[19]; 6 h,not observed
same,brain concentration relative to plasma,[20],~ 5 fold
same,time to peak β-arrestin-2 recruitment,[21],< 10 min
